Results reported in patent publication US8211662B2, “Nitroreductase enzymatic substrates” (Biomerieux, priority 2007, dated 2012).

Columns and labels:
Assay in all cases: Nitroreductase detection on Columbia agar, colonies read under UV
[1] = test system: Salmonella typhimurium NCTC 74; format: cell-based; set-up: key to Intensity of fluorescence, Salmonella typhimurium NCTC 74 / F: fluorescence (intensity), Salmonella typhimurium NCTC 74 / Intensity of the fluorescence, Salmonella typhimurium NCTC 74: − = no fluorescence detected; +/− = weak fluorescence; + = medium fluorescence; ++ = strong fluorescence; conditions: Table 3; 100 mg/l in Columbia agar, 24 h 37° C., UV 360-365 nm
Method: (§1) A mass of 40 mg of each substrate was dissolved in 4 ml of dimethylformamide (DMF). This solution was entirely taken up in 400 ml of Columbia agar autoclaved beforehand and kept molten at 50° C. The final concentration for each substrate was 100 mg/l.
(§2) Each of the media was distributed into Petri dishes 90 mm in diameter, in a proportion of 20 ml per dish.
(§3) 18 microorganism strains derived from collections and belonging to various species of bacteria and of yeasts were inoculated onto these media by semi-quantitative isolation of 10 μl of a suspension at 0.5 McFarland diluted to 1/20. The media were incubated for 24 hours at 37° C., then the colonies formed were examined visually under UV illumination at 360-365 nm.

[2] = test system: Morganella morganii 462403 (wild); format: cell-based; set-up: key to Intensity of fluorescence, Morganella morganii 462403 / F: fluorescence (intensity), Morganella morganii 462403 (wild) / Intensity of the fluorescence, Morganella morganii 462403 (wild): − = no fluorescence detected; +/− = weak fluorescence; + = medium fluorescence; ++ = strong fluorescence; conditions: Table 3; 100 mg/l in Columbia agar, 24 h 37° C., UV 360-365 nm
Method: as §1, §2, §3

[3] = test system: Candida glabrata NCPF 3943; format: cell-based; set-up: key to Intensity of fluorescence, Candida glabrata NCPF3943 / F: fluorescence (intensity), Candida glabrata NCPF 3943 / Intensity of the fluorescence, Candida glabrata NCPF 3943: − = no fluorescence detected; +/− = weak fluorescence; + = medium fluorescence; ++ = strong fluorescence; conditions: 100 mg/l in Columbia agar, 24 h 37° C.
Method: as §1, §2, §3

MRSA NCTC 11939 = format: cell-based, Staphylococcus aureus; set-up: key: − = no fluorescence detected; +/− = weak fluorescence; + = medium fluorescence; ++ = strong fluorescence; conditions: Table 3; 100 mg/l in Columbia agar, 24 h 37° C., UV 360-365 nm
Method: as §1, §2, §3

[4] = test system: Staphylococcus epidermidis NCTC 11047; format: cell-based; set-up: key: − = no fluorescence detected; +/− = weak fluorescence; + = medium fluorescence; ++ = strong fluorescence; conditions: Table 3; 100 mg/l in Columbia agar, 24 h 37° C., UV 360-365 nm
Method: as §1, §2, §3

[5] = test system: Serratia marcescens NCTC 10211; format: cell-based; set-up: key: − = no fluorescence detected; +/− = weak fluorescence; + = medium fluorescence; ++ = strong fluorescence; conditions: Table 3; 100 mg/l in Columbia agar, 24 h 37° C., UV 360-365 nm
Method: as §1, §2, §3

[6] = test system: Burkholderia cepacia 1222; format: cell-based; set-up: key: − = no fluorescence detected; +/− = weak fluorescence; + = medium fluorescence; ++ = strong fluorescence; conditions: Table 3; 100 mg/l in Columbia agar, 24 h 37° C., UV 360-365 nm
Method: as §1, §2, §3

[7] = test system: Candida albicans ATCC 90028; format: cell-based; set-up: key: − = no fluorescence detected; +/− = weak fluorescence; + = medium fluorescence; ++ = strong fluorescence; conditions: Table 3; 100 mg/l in Columbia agar, 24 h 37° C., UV 360-365 nm
Method: as §1, §2, §3

[8] = test system: Enterococcus faecalis NCTC 775; format: cell-based; set-up: key: − = no fluorescence detected; +/− = weak fluorescence; + = medium fluorescence; ++ = strong fluorescence; conditions: Table 3; 100 mg/l in Columbia agar, 24 h 37° C., UV 360-365 nm
Method: as §1, §2, §3

[9] = test system: Staphylococcus aureus NCTC 6571; format: cell-based; set-up: key: − = no fluorescence detected; +/− = weak fluorescence; + = medium fluorescence; ++ = strong fluorescence; conditions: Table 3; 100 mg/l in Columbia agar, 24 h 37° C., UV 360-365 nm
Method: as §1, §2, §3

[10] = test system: Escherichia coli NCTC 10418; format: cell-based; set-up: key: − = no fluorescence detected; +/− = weak fluorescence; + = medium fluorescence; ++ = strong fluorescence; conditions: Table 3; 100 mg/l in Columbia agar, 24 h 37° C., UV 360-365 nm
Method: as §1, §2, §3

[11] = test system: Providencia rettgeri NCTC 7475; format: cell-based; set-up: key: − = no fluorescence detected; +/− = weak fluorescence; + = medium fluorescence; ++ = strong fluorescence; conditions: Table 3; 100 mg/l in Columbia agar, 24 h 37° C., UV 360-365 nm
Method: as §1, §2, §3

[12] = test system: Listeria monocytogenes NCTC 11994; format: cell-based; set-up: key: − = no fluorescence detected; +/− = weak fluorescence; + = medium fluorescence; ++ = strong fluorescence; conditions: Table 3; 100 mg/l in Columbia agar, 24 h 37° C., UV 360-365 nm
Method: as §1, §2, §3

[13] = test system: Citrobacter freundii 46262 (wild); format: cell-based; set-up: key: − = no fluorescence detected; +/− = weak fluorescence; + = medium fluorescence; ++ = strong fluorescence; conditions: Table 3; 100 mg/l in Columbia agar, 24 h 37° C., UV 360-365 nm
Method: as §1, §2, §3

[14] = test system: Enterococcus faecium NCTC 7171; format: cell-based; set-up: key: − = no fluorescence detected; +/− = weak fluorescence; + = medium fluorescence; ++ = strong fluorescence; conditions: Table 3; 100 mg/l in Columbia agar, 24 h 37° C., UV 360-365 nm
Method: as §1, §2, §3

[15] = test system: Enterobacter cloacae NCTC 11936; format: cell-based; set-up: key: − = no fluorescence detected; +/− = weak fluorescence; + = medium fluorescence; ++ = strong fluorescence; conditions: Table 3; 100 mg/l in Columbia agar, 24 h 37° C., UV 360-365 nm
Method: as §1, §2, §3

[16] = test system: Bacillus subtilis NCTC 9372; format: cell-based; set-up: key: − = no fluorescence detected; +/− = weak fluorescence; + = medium fluorescence; ++ = strong fluorescence; conditions: Table 3; 100 mg/l in Columbia agar, 24 h 37° C., UV 360-365 nm
Method: as §1, §2, §3

[17] = test system: Pseudomonas aeruginosa NCTC 10662; format: cell-based; set-up: key: − = no fluorescence detected; +/− = weak fluorescence; + = medium fluorescence; ++ = strong fluorescence; conditions: Table 3; 100 mg/l in Columbia agar, 24 h 37° C., UV 360-365 nm
Method: as §1, §2, §3

[18] = test system: Streptococcus pyogenes NCTC 8306; format: cell-based; set-up: key: − = no fluorescence detected; +/− = weak fluorescence; + = medium fluorescence; ++ = strong fluorescence; conditions: Table 3; 100 mg/l in Columbia agar, 24 h 37° C., UV 360-365 nm
Method: as §1, §2, §3

[19] = test system: Yersinia enterocolitica NCTC 11176; format: cell-based; set-up: key: − = no fluorescence detected; +/− = weak fluorescence; + = medium fluorescence; ++ = strong fluorescence; conditions: Table 3; 100 mg/l in Columbia agar, 24 h 37° C., UV 360-365 nm
Method: as §1, §2, §3

O=[N+]([O-])c1ccccc1-c1nc2ccccc2o1 [Substrate 1]
F: fluorescence (intensity), Salmonella typhimurium NCTC 74 [1]: ++ | F: fluorescence (intensity), Morganella morganii 462403 (wild) [2]: ++ | G: growth, Candida glabrata NCPF 3943 [3]: No G | F: fluorescence (intensity), Candida glabrata NCPF 3943 ([3]; Table 3, UV 360-365 nm): − | F: fluorescence (intensity), MRSA NCTC 11939 (MRSA NCTC 11939): ++ | F: fluorescence (intensity), Staphylococcus epidermidis NCTC 11047 [4]: + | F: fluorescence (intensity), Serratia marcescens NCTC 10211 [5]: ++ | F: fluorescence (intensity), Burkholderia cepacia 1222 [6]: ++ | F: fluorescence (intensity), Candida albicans ATCC 90028 [7]: − | F: fluorescence (intensity), Enterococcus faecails NCTC 775 [8]: ++ | F: fluorescence (intensity), Staphylococcus aureus NCTC 6571 [9]: ++ | F: fluorescence (intensity), Escherichia coli NCTC 10418 [10]: ++ | F: fluorescence (intensity), Providencia rettgeri NCTC 7475 [11]: ++ | F: fluorescence (intensity), Listeria monocyto genes NCTC 11994 [12]: ++ | F: fluorescence (intensity), Citrobacter freundii 46262 (wild) [13]: ++ | F: fluorescence (intensity), Enterococcus faecium NCTC 7171 [14]: + | F: fluorescence (intensity), Enterobacter cloacae NCTC 11936 [15]: ++ | F: fluorescence (intensity), Bacillus subtilis NCTC 9372 [16]: − | F: fluorescence (intensity), Pseudomonas aeruginosa NCTC 10662 [17]: ++ | F: fluorescence (intensity), Streptococcus pyogenes NCTC 8306 [18]: + | F: fluorescence (intensity), Yersinia enterocolitica NCTC 11176 [19]: ++
